Reference: US11964971B2, “Methods and compositions for modulating splicing” (Skyhawk Therapeutics, Inc., priority 2019, dated 2024)

Columns and labels:
SMN protein = SMN protein assay (MSD) in SMA patient fibroblasts (GM03813); format: cell-based, human
Method in brief: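 Absolute SMN protein measured by Mesoscale Discovery assay in lysates, calibrated per plate with SMN standards (1–19.5 μg/ml). Cells: GM03813 SMA fibroblasts, 7000/well, 48 h compound exposure at doses of 2.5 μM down to 0.6 nM.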

[1] = tested on: MDR1-MDCK cell monolayers; conditions: dog, MDCK-MDR1, 120 min, 5 μM, pH 7.4
MDR1 = assay: in vitro; conditions: dog; for Papp A→B at 120 min, 5 μM: MDCK-MDR1, pH 7.4, MDCK-MDR1: Papp A-B (10^−6, cm/s); for Papp B→A at 120 min, 5 μM: MDCK-MDR1, pH 7.4, MDCK-MDR1: Papp B-A (10^−6, cm/s)
MDR1 (P-gp) = assay: MDCK-MDR1 permeability assay, blood-brain-barrier penetration potential; conditions: dog, MDCK-MDR1, pH 7.4, MDCK-MDR1 Efflux Ratio

SMILES	EC50 (SMN protein) [nM]	MDCK-MDR1: % Recov A-B (%) [1] [%]	MDCK-MDR1: % Recov B-A (%) [1] [%]	Papp A→B at 120 min, 5 μM (MDR1) [×10⁻⁶ cm/s]	Papp B→A at 120 min, 5 μM (MDR1) [×10⁻⁶ cm/s]	efflux ratio at 120 min, 5 μM (MDR1 (P-gp))
CN(c1cnc(-c2ccc(C3=CCOC3)cc2O)cn1)[C@H]1C[C@@H]2CCC(N2)[C@H]1F (single isomer, unassigned) [Compound 84E2]	16 to 50	28	66	4.64	14.9	3
C[C@@]12CC[C@@](C)(N1)[C@@H](F)[C@@H](Oc1cnc(-c3ccc(-c4cn[nH]c4)cc3O)cn1)C2 [Compound 2E1, 2-(5-(((1R,2R,35,5S)-2-fluoro-1,5-dimethyl-8-azabicyclo[3.2.1]octan-3-yl)oxy)pyrazin-2-yl)-5-(1H-pyrazol-4-yl)phenol]	501 to 10000	71	86	7.93	40.7	5
C[C@]12CC[C@](C)(N1)[C@H](F)[C@H](Oc1cnc(-c3ccc(-c4cn[nH]c4)cc3O)cn1)C2 [Compound 2E2, 2-(5-(((1S,2S,3R,5R)-2-fluoro-1,5-dimethyl-8-azabicyclo[3.2.1]octan-3-yl)oxy)pyrazin-2-yl)-5-(1H-pyrazol-4-yl)phenol]	501 to 10000	71	79	9.6	34.7	4
CN(c1cnc(-c2ccc(-c3cnn(C)c3)cc2O)cn1)[C@@H]1C[C@H]2CCC[C@H](N2)[C@@H]1F [Compound 4E1, 2-(5-(((1S,2S,3R,5R)-2-fluoro-9-azabicyclo[3.3.1]nonan-3-yl)(methyl)amino)pyrazin-2-yl)-5-(1-methyl-1H-pyrazol-4-yl)phenol]	51 to 100	44	66	4.89	31.4	6
CN(c1cnc(-c2cc3ncn(CC(F)(F)F)c(=O)c3cc2O)cn1)[C@H]1C[C@@H]2CCC[C@@H](N2)[C@H]1F [Compound 18E2, 7-(5-(((1R,2R,3S,5S)-2-fluoro-9-azabicyclo[3.3.1]nonan-3-yl)(methyl)amino)pyrazin-2-yl)-6-hydroxy-3-(2,2,2-trifluoroethyl)quinazolin-4(3H)-one]	501 to 10000	82	87	1.33	73.5	56
CN(c1cnc(-c2ccc(-c3cn[nH]c3)cc2O)cn1)[C@@H]1C[C@@]2(C)CCC[C@](C)(N2)[C@@H]1F [Compound 23E1, 2-(5-(((1S,2R,3R,5R)-2-fluoro-1,5-dimethyl-9-azabicyclo[3.3.1]nonan-3-yl)(methyl)amino)pyrazin-2-yl)-5-(1H-pyrazol-4-yl)phenol]	501 to 10000	56	78	9.07	38.7	4
COc1cc(-c2ccc(-c3cnc(N(C)[C@@H]4C[C@@]5(C)CCC[C@](C)(N5)[C@@H]4F)cn3)c(O)c2)cnn1 [Compound 24E1, 2-(5-(((1S,2R,3R,5R)-2-fluoro-1,5-dimethyl-9-azabicyclo[3.3.1]nonan-3-yl)(methyl)amino)pyrazin-2-yl)-5-(6-methoxypyridazin-4-yl)phenol]	101 to 500	40	42	1.93	5.01	3
COc1cc(-c2ccc(-c3cnc(N(C)[C@H]4C[C@]5(C)CCC[C@@](C)(N5)[C@H]4F)cn3)c(O)c2)cnn1 [Compound 24E2, 2-(5-(((1R,2S,3S,5S)-2-fluoro-1,5-dimethyl-9-azabicyclo[3.3.1]nonan-3-yl)(methyl)amino)pyrazin-2-yl)-5-(6-methoxypyridazin-4-yl)phenol]	501 to 10000	37	44	3.01	6.99	2
CN(c1cnc(-c2ccc(-c3cn[nH]c3)cc2O)cn1)[C@@H]1C[C@@]2(C)CC[C@H](N2)[C@@H]1F [Compound 28E4, 2-(5-(((1R,3R,4S,5S)-4-fluoro-1-methyl-8-azabicyclo[3.2.1]octan-3-yl)(methyl)amino)pyrazin-2-yl)-5-(1H-pyrazol-4-yl)phenol]	501 to 10000	68	84	4.42	48.4	11
CN(c1cnc(-c2cc(F)c(-c3ccn(CF)c(=O)c3)cc2O)cn1)[C@@H]1C[C@H]2CC[C@H](N2)[C@@H]1F [Compound 32E1, 4-(2-fluoro-4-(5-(((1S,2S,3R,5R)-2-fluoro-8-azabicyclo[3.2.1]octan-3-yl)(methyl)amino)pyrazin-2-yl)-5-hydroxyphenyl)-1-(fluoromethyl)pyridin-2(1H)-one]	501 to 10000	101	92	3.13	58.7	19
Cn1cc(-c2cc(O)c(-c3cnc(N(C4CC4)[C@@H]4C[C@H]5CC[C@H](N5)[C@@H]4F)cn3)cc2F)cn1 [Compound 35E1, 2-(5-(cyclopropyl((1S,2S,3R,5R)-2-fluoro-8-azabicyclo[3.2.1]octan-3-yl)amino)pyrazin-2-yl)-4-fluoro-5-(1-methyl-1H-pyrazol-4-yl)phenol]	501 to 10000	36	62	3	17.9	6
